The values below come from article PMC5693986, “Atomic resolution snapshot of Leishmania ribosome inhibition by the aminoglycoside paromomycin” (Nature Communications, 2017).

What is called IC50 is the concentration that gives 50% inhibition.

The subject of test [1] is rabbit reticulocyte lysate translation. Also on record: method as in PMID 26264664. The settings on record: rabbit reticulocyte lysates; mean ± SE; read-out: Inhibition of translation—IC50, Reticulocytes; cited from earlier work.
Test [2] relates to bacterial translation (E. coli S30 extract). On the set-up: method as in PMID 26264664. As to conditions: mean ± SE, read-out: Inhibition of translation—IC50, Bacteria; cited from earlier work.
Test [3] concerns leishmanial cytosolic ribosome. Kind of test: In vitro inhibition of translation in L. tarentolae lysates (cell-free transcription-translation, EGFP reporter). Type of test: biochemical. As to conditions: for IC50: L. tarentolae lysates, mean ± SE of at least three independent repeats, read-out: Inhibition of translation—IC50, Leishmania. An excerpt: (§1) In order to assess cytosolic ribosome susceptibility and selectivity to putative anti-leishmanial compounds, we performed three different cell-free transcription-translation assays in S30 extracts of E. coli (Promega), rabbit reticulocytes (Promega) and L. tarentolae (Jena Bioscience). […] The ribosomes derived from this species are highly similar to L. donovani ribosomes. Three plasmids, compatible with each extract system, were used in this study: pBESTlucTM (Promega) for the prokaryotic translation assay, Luciferase T7 DNA (Promega) for the reticulocytes and pLEXSY-invitro2-EGFP (Jena Bioscience) for Leishmania. Firefly luciferase was used as a reporter gene for the bacterial and reticulocyte systems and EGFP for Leishmania. […] Assays were performed in white polystyrene 96-well flat bottom plates (Nunc) for the luciferase and black polystyrene 384-well flat-bottom plates (Greiner) for the EGFP. Incubation times were 60 min at 37 °C, 90 min at 30 °C and 120 min at 26 °C for the bacterial, reticulocyte and Leishmania systems, respectively. Reactions were stopped by quick snap cooling followed by a 5-min incubation on ice. Luciferase activity was measured for each well following the addition of 50 μl Luciferase Assay reagent (Promega) by recording the chemi-luminescence signal on […] (Tecan). EGFP fluorescence (λ ex = 488 nm; λ em = 507 nm) was recorded on Tecan Infinite R®F200 microplate reader (Tecan). Extracts lacking the circular DNA template were used as negative control to calculate the fluorescence/chemi-luminescence background. Reaction mixtures without compound presence were used as positive control and were regarded as 100% translation. At least six different concentrations were used to plot each translation inhibition curve, experiments were performed in three independent repeats in duplicates. Half-maximal inhibition concentration (IC50) values were calculated from the concentration–response fitting curves of using GraFit7 software.

Test [4] deals with rabbit reticulocyte lysate translation. As to the kind of experiment: In vitro inhibition of translation in rabbit reticulocyte lysates (luciferase reporter). Type of test: biochemical. The settings on record: mean ± SE of at least three independent repeats, read-out: Inhibition of translation—IC50, Reticulocytes.
From the text: as §1
For orientation: A reporter such as luciferase makes a cellular process visible.

The subject of test [5] is leishmanial decoding (UGA stop codon read-through). Kind of test: In vitro assessment of misreading (dual-luciferase UGA stop codon read-through) in L. tarentolae lysates. Type of test: biochemical. As to conditions: for Misreading activity (UGA stop codon read-through) at IC50 levels: at the compound's IC50 concentration, L. tarentolae lysates. An excerpt: To examine AG modes of action in Leishmania, we designed a dual-reporter assay whereby an in-frame linker containing a UGA stop mutation was introduced in between two genes encoding Renilla and Firefly luciferases cloned into an in vitro Leishmania expression system. A similar system was previously used to assess stop codon read-through events in bacteria as well as other eukaryotes, and as these levels seemed to correspond to tRNA misreading levels it has also been previously used to evaluate infidelity of translation[38],[39].
The content of a p2luc dual-luciferase derived from an SV-40 vector with either wild type or an in-frame TGA stop codon poly-linker was cloned into pLEXSY-invitro2 that is compatible with Leishmania in vitro translation (Jena Bioscience). SV-40 constructs were a generous gift by Professor Timor Baasov. Cloning has been performed by restriction-free (RF) PCR methodology as previously described by Unger et al.[40].
5′-[…]-3′ and 5′-[…]-3′ were used as forward and reverse primers, respectively. Primers were produced by custom design (Sigma). The in vitro misreading assays were performed in L. tarentolae lysates and were designed similarly to the inhibition of translation assay reported herein. The main modifications were that the final reaction volume was adjusted to 20 μl and that the assay has been performed in white polystyrene 96-well flatbottom plates (Nunc). Luciferase activity was determined after 120 min incubation at 26 °C, using the Dual luciferase reporter assay system (Promega) and was performed according to the manufacturer’s instructions.

In test [6] the test system is bacterial translation (E. coli S30 extract). As to the kind of experiment: In vitro inhibition of translation in E. coli S30 extracts (luciferase reporter). Type of test: biochemical. As to conditions: mean ± SE of at least three independent repeats, read-out: Inhibition of translation—IC50, Bacteria.
From the text: as §1

Where “and” joins values, the source holds several entries; their conditions need not be identical. Equal entries are not always repeated. Where two headings read alike, the source gives them in different places.

Regarding `CN[C@@H]1[C@@H](O)[C@@H](O[C@@H]2[C@@H](O)[C@H](O[C@H]3O[C@H]([C@@H](C)O)[C@@H](O)[C@H](O)[C@H]3N)[C@@H](N)C[C@H]2N)OC[C@]1(C)O` [G418, geneticin], the IC50 is 2000 ± 300 nM in test [1]; 9 ± 1.5 nM in test [2]; 150 nM and 153 nM in test [3].

Turning to `CN[C@@H]1[C@@H](O[C@H]2O[C@H](CO)[C@@H](N)[C@H](O)[C@H]2O)OC2C[C@@H](N)[C@@H](O[C@H]3[C@H](O)[C@@H](O)[C@H](N)C[C@@H]3N)OC2[C@@H]1O` (stereo partly shown) [APR, apramycin], the IC50 in test [4] stood at 29000 ± 6000 nM; in test [6], 49 ± 3 nM; in test [3], 201000 ± 16100 nM. For the same molecule, in test [5], the “Misreading activity (UGA stop codon read-through) at IC50 levels” value turned out to be 5%. In addition, the “Reduced activity in Leishmania compared to bacteria (inhibition of translation)” value in test [3] (Leishmania versus bacterial ribosome, from Table 1) is 4 orders of magnitude.

Regarding `NC[C@@H]1O[C@H](O[C@H]2[C@@H](O)[C@H](O[C@@H]3[C@@H](O)[C@H](N)C[C@H](N)[C@H]3O[C@H]3O[C@H](CO)[C@@H](O)[C@H](O)[C@H]3N)O[C@@H]2CO)[C@H](N)[C@@H](O)[C@@H]1O` [PAR, paromomycin], the figures for the half-inhibitory concentration (IC50) in test [1], in test [2] and in test [3] were 57000 ± 4000 nM, 51 ± 5 nM and 3620 ± 176 nM, respectively. Besides, the “Misreading activity (UGA stop codon read-through) at IC50 levels” value in test [5] was determined as 26%.

With `CNC(C)C1CCC(N)C(OC2C(N)CC(N)C(OC3OCC(C)(O)C(NC)C3O)C2O)O1` (stereo not shown) [GEN, gentamicin], the IC50 in test [4] came to 62000 ± 9000 nM; in test [6], 28 ± 4 nM; in test [3], 18400 nM.

`CNC1CC(N)C(O)C(OC2OC(CO)C(O)C3OC4(OC(C(N)CO)C(O)C(O)C4O)OC23)C1O` (stereo not shown) [HYG, hygromycin B]: the half-maximal inhibitory concentration (IC50) in test [4] is 800 ± 100 nM; in test [6] it was 11 ± 2 nM; in test [3], 65 nM and 64.7 nM. Besides, the “Misreading of the genetic code (result in words)” value in test [5] (at concentrations corresponding to its IC50 value) was “does not induce misreading”.

As to `NC[C@@H]1O[C@H](O[C@H]2[C@@H](O)[C@H](O[C@@H]3[C@@H](O)[C@H](N)C[C@H](N)[C@H]3O[C@H]3O[C@H](CN)[C@@H](O)[C@H](O)[C@H]3N)O[C@@H]2CO)[C@H](N)[C@@H](O)[C@@H]1O` [NEO, neomycin B], the results for the 50% inhibitory concentration (IC50) in test [4], in test [6] and in test [3] were 28000 ± 5000 nM, 11 ± 1 nM and 82400 nM, respectively.
